Experiments:
hACAT1 = target: T1, hACAT1 (Homo sapiens, UniProt P35610); test: Enzymatic assay hACAT1; type: biochemical
T1 sequence (P35610 1-550): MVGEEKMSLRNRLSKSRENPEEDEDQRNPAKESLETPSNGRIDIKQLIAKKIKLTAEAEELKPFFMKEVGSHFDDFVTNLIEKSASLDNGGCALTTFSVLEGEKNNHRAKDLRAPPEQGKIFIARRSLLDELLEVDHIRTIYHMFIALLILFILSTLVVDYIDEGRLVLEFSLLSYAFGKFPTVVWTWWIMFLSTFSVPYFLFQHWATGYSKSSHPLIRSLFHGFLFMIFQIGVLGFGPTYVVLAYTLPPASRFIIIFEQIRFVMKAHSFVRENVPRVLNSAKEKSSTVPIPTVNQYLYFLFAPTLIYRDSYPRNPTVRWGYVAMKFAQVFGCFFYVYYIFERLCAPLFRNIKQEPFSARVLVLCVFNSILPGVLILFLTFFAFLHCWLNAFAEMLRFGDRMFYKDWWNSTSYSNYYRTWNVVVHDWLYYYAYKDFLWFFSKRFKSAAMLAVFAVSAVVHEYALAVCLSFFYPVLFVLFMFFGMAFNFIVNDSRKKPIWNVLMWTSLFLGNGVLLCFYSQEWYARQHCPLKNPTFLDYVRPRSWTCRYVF
Excerpt: (§1) ACATs have sequence homology to DGAT-1 and play essential roles in cholesterol homeostasis. 17b was not explored in the enzymatic assays due to its poor pharmacokinetic profile.

[1] = Tissue distribution in mice; type: in vivo; details: ICR mice, 30 mg/kg oral, n = 3
Method: In addition, tissue distribution of 17a was investigated. 17a was orally administered to mice at 30 mg/kg, and 2 was administrated as a positive control (Figure 5). […] Significant activity of 17a in the OLTT appeared to result from high concentration in the small intestine, even though bioavailability of 17a was not great in mice.
Figure 5. Tissue distribution of 17a in mice. 17a and 2 were orally administered to ICR mice at 30 mg/kg (n = 3). (a) AUC values of 17a and 2 in indicated tissues. […] Data represent mean value. (b) Tissue-to-plasma (T/P) ratio of 17a and 2. S.I.: small intestine, L.I.: large intestine.

hDGAT2 = target: T2, hDGAT2 (Homo sapiens, UniProt Q96PD7); test: Enzymatic assay hDGAT2; type: biochemical
T2 sequence (Q96PD7 1-388): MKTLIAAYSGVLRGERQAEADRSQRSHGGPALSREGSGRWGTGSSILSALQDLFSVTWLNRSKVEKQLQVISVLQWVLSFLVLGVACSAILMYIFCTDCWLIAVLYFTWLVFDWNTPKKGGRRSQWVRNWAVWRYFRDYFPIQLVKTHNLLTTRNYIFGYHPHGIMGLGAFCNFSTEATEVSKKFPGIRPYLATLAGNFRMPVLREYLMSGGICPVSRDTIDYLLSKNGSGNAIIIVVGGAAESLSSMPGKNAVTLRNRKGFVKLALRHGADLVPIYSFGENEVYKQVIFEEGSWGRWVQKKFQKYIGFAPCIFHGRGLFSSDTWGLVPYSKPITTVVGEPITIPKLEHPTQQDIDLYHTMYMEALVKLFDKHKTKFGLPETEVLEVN
Excerpt: as §1

hDGAT1 = target: T3, hDGAT1 (Homo sapiens, UniProt O75907); test: Enzymatic assay hDGAT1; type: biochemical
T3 sequence (O75907 1-488): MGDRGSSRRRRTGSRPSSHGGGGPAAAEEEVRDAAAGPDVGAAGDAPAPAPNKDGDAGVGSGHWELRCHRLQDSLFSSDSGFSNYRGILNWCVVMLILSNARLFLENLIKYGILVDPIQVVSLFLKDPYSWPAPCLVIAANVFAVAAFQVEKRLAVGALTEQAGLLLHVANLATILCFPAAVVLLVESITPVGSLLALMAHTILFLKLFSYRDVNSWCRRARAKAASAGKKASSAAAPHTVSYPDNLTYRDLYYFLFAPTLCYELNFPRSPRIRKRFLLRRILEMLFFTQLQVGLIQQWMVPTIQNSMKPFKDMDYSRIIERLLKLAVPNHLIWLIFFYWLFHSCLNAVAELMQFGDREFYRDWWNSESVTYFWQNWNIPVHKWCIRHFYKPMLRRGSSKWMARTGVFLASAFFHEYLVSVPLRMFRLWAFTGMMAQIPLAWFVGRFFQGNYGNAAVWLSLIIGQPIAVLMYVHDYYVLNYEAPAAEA
Excerpt: as §1

hACAT2 = target: T4, hACAT2 (Homo sapiens, UniProt O75908); test: Enzymatic assay hACAT2; type: biochemical
T4 sequence (O75908 1-522): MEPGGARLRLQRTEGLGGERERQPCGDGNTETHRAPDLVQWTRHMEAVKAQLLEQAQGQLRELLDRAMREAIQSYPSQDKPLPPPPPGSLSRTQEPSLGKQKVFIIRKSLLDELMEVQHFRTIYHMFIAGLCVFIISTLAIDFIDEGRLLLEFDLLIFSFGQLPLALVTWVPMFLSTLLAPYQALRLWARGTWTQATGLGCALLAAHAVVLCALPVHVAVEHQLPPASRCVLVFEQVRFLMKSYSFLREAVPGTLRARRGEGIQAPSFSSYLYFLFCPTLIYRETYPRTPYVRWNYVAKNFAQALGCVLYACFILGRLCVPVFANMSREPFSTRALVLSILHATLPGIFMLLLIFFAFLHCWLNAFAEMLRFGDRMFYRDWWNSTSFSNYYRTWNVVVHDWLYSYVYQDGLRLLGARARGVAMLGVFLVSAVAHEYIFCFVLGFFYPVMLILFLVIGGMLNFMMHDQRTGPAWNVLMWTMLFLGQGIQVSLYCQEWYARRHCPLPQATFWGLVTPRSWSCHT
Excerpt: as §1

[2] = target: T5, human recombinant DGAT1 enzyme expressed in insect cells (SF9 cells) (Homo sapiens, UniProt O75907); test: DGAT-1 inhibition assay (IC50), SF9 microsomes; type: biochemical; details: SF9 insect cells expressing human DGAT-1
T5 construct: made in house; host or cells: SF9 insect cells (microsomal membrane fraction)
T5 sequence (O75907 1-488): T3 sequence (O75907 1-488)
Method: The activity of DGAT-1 inhibitors in vitro was evaluated by using a human recombinant DGAT1 enzyme expressed in insect cells (SF9 cells). SF9 cells were homogenised by washing them with DPBS (Dulbecco’s phosphate-buffered saline) and then suspending cell pellets with a tris buffer (250 mM sucrose; 10 mM Tris-HCl [pH 7.4]; proteinase inhibitor). The resulting mixture was centrifugally separated at 10,000 × g for 30 min to remove the cell debris remaining in the lower layer thereof, and was centrifugally separated at 100,000 × g for 60 min to obtain a microsomal membrane. Further, membrane fractions were resuspended by the tris buffer, and then stored at -80 °C.
The activity of DGAT1 was measured according to the reported method. Specifically, 0.0001 – 10 μΜ (final concentration, FC) of the test compounds were cultured at room temperature (25 °C) for 15 min with a […] of SF9 microsomal protein solution and 100 mM of MgCl2 solution, and were then further cultured at room temperature (25 °C) for 30 min after the addition of 100 μΜ (FC in 12.5% EtOH) of 1,2-dioleyl-sn-glycerol and 30 μΜ (final conc.) of [14]C-oleyl coenzyme A. The reaction was completed by the addition of 300 μL of a mixed solution of 2-propanol/heptane (7:1), and radioactive triglyceride was separated from an organic solvent layer by using 200 μL of heptane and 200 μL of a 0.1 M carbonate buffer (pH 9.5). The amount of triglyceride was measured by liquid scintillography (Perkin Elmer, USA) after mixing with an organic solvent and an equivalent amount of scintillation solvent (MicroScint-O, Perkin Elmer, USA). The effects of inhibiting DGAT1 were calculated as percent in comparison with a control material.
The activities of synthesised compounds were evaluated using SF9 insect cells expressing human DGAT-1[22]. A potent DGAT-1 inhibitor, LCQ-908 (2 or pradigastat) was used as a positive control. […] The calculated lowest energy conformation model of 14c provided that the distance between the terminal carboxylic acid and NH of urea was over 16 Å, which may result in reduced activity. […]

[3] = Pharmacokinetic profile in ICR mice; details: mouse, in vivo

O=C(O)C[C@H]1CC[C@H](c2ccc(-c3ccc(Nc4ccc(C(F)(F)F)nc4)cn3)cc2)CC1 [Compound 2, pradigastat, reference compound]
IC50 (hACAT1): > 10000 nM | Tissue distribution (concentration levels in tissues) [1]: much high concentrations in the liver and large intestine | IC50 (hDGAT2): > 10000 nM | IC50 (hDGAT1): 57 nM | IC50 (hACAT2): > 10000 nM | IC50 [2]: 157 nM

O=C([O-])C[C@H]1CC[C@H](c2csc3c(-c4ccc(NC(=O)Nc5cccc(Cl)c5)cc4)ncnc32)CC1.[Na+] [Compound 17b, Sodium trans-2–(4–(4-(4-(3–(3-chlorophenyl)ureido)phenyl)thieno[3,2-d]pyrimidin-7-yl)cyclohexyl)acetate]
bioavailability ([3]; oral 10 mg/kg vs iv 3 mg/kg): 0.7% | Cmax ([3]; oral 10 mg/kg, n = 3): 74.8 ng/mL | half-life ([3]; oral 10 mg/kg, n = 3): 5.2 h | AUC ([3]; oral 10 mg/kg, n = 3, read-out: AUC 0∼24): 234 ng·h/mL | IC50 [2]: 89 nM

Source: article PMC6882492, “Synthesis and biological evaluation of novel thienopyrimidine derivatives as diacylglycerol acyltransferase 1 (DGAT-1) inhibitors” (Journal of Enzyme Inhibition and Medicinal Chemistry, 2019)
